Experimental data as given in patent publication US6017520A, “Penetration enhancement of topically applied therapeutic formulations” (Block Drug Company, Inc., priority 1997, dated 2000).

Experiment: Penetration study, Bronaugh flow-through diffusion cell system (permeability coefficient Kp)
Conditions: 0.5 percent ketoprofen in the presence of vitamin E

CC(C(=O)O)c1cccc(C(=O)c2ccccc2)c1 (stereo not shown) [ketoprofen]
penetration rate: greater than that of 1.0 percent ketoprofen without vitamin E
